From patent US12071408B2, “Multi-targeted tyrosine kinase inhibitors effective in antitumor uses” (Shanghai AB PharmaTech Ltd., priority 2021, dated 2024)

Experiments:
[1] = system: bladder cancer cell line (RT112/84); experiment: Tumor cell proliferation inhibition (CTG, 72 h); format: cell-based; conditions: Homo sapiens; RT112/84 cells, class; read-out: RT112/84 range of activity (IC50)
[2] = system: leukemia cell line (K562); experiment: Tumor cell proliferation inhibition (CTG, 72 h); format: cell-based; conditions: Homo sapiens; K562 cells, class; read-out: K562 activity effect range (IC50)
EGFR = EGFR (Homo sapiens (Human), UniProt P00533); experiment: Kinase inhibition, Mobility-Shift Assay; format: biochemical; conditions: class; read-out: EGFR range of activity (IC50)
Sequence of EGFR (P00533 25-1210): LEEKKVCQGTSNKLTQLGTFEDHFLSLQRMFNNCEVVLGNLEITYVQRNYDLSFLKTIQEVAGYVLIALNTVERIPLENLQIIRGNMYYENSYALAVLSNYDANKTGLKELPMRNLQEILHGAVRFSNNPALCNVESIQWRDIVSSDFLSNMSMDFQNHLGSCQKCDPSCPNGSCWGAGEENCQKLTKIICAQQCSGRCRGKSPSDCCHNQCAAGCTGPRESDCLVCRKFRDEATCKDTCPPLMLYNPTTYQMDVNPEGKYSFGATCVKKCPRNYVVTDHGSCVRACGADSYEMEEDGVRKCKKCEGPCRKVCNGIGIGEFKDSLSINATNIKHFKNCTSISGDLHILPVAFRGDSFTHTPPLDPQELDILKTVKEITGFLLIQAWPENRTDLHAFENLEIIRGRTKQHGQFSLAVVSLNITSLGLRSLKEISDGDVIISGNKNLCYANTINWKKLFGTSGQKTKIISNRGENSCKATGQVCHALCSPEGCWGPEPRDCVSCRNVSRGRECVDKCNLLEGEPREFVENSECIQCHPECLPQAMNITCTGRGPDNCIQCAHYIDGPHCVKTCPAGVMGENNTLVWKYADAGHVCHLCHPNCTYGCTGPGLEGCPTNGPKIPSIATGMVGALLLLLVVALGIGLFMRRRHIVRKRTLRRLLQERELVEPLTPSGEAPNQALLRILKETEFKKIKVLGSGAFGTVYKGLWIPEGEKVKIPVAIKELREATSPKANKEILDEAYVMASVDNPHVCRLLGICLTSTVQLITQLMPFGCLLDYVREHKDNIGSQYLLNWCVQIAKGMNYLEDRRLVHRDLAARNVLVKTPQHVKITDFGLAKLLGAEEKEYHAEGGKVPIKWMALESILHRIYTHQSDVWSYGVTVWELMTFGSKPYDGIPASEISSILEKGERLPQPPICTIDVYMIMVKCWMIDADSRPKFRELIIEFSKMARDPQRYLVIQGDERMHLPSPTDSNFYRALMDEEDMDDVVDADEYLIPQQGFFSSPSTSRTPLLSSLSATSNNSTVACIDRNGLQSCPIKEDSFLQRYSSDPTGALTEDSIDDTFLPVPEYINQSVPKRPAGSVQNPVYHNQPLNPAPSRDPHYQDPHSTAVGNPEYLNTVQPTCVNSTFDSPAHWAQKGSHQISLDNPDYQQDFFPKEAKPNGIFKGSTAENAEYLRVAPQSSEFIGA

VEGFR-2 (KDR) = VEGFR-2 (KDR) (Homo sapiens (Human), UniProt P35968); experiment: Kinase inhibition, Mobility-Shift Assay; format: biochemical; conditions: class; read-out: KDR activity effect range (IC50)
Sequence of VEGFR-2 (KDR) (P35968 20-1356): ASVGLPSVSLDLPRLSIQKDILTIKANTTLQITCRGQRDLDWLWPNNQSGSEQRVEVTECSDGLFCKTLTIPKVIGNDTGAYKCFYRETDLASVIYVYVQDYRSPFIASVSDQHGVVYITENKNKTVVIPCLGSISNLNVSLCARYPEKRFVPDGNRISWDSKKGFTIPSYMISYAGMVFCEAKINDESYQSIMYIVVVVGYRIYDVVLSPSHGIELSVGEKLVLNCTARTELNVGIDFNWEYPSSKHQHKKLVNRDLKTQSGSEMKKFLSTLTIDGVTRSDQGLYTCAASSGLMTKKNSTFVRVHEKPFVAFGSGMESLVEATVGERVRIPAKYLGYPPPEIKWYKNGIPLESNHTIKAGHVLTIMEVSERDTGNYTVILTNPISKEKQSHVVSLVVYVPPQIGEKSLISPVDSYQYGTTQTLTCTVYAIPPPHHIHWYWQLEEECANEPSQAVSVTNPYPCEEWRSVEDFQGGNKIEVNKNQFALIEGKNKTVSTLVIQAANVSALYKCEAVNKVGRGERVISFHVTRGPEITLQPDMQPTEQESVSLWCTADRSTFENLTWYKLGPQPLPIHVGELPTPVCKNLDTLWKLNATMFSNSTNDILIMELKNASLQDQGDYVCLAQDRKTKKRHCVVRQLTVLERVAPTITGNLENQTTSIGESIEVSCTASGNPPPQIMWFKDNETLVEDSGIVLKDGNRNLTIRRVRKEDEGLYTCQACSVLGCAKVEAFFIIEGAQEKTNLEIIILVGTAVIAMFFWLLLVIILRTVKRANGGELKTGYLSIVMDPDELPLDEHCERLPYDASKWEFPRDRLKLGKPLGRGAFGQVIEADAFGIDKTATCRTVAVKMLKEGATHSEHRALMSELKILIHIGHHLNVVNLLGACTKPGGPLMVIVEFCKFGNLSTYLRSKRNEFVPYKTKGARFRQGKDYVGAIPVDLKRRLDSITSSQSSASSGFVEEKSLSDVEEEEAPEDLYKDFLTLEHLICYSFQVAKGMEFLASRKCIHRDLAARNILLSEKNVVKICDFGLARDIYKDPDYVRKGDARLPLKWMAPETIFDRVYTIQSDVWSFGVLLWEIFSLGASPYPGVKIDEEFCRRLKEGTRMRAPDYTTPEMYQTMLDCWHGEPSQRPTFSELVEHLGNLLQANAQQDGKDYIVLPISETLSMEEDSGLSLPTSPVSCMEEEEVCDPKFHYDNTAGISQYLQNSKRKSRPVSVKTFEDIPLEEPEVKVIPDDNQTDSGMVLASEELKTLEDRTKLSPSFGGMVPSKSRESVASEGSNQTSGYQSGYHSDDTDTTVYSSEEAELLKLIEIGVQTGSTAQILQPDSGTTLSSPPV

[3] = system: thyroid cancer cell line (TT); experiment: Tumor cell proliferation inhibition (CTG, 72 h); format: cell-based; conditions: Homo sapiens; TT cells, class; read-out: TT range of activity (IC50)
C-MET = C-MET (Homo sapiens (Human), UniProt P08581); experiment: Kinase inhibition, Mobility-Shift Assay; format: biochemical; conditions: class; read-out: C-MET range of activity (IC50)
[4] = system: cervical cancer cell line (Hela); experiment: Tumor cell proliferation inhibition (CTG, 72 h); format: cell-based; conditions: Homo sapiens; Hela cells, class; read-out: Hela activity effect range (IC50)
FGFR2 = FGFR2 (Homo sapiens (Human), UniProt P21802); experiment: Kinase inhibition, Mobility-Shift Assay; format: biochemical; conditions: class; read-out: FGFR2 range of activity effects (IC50)
Sequence of FGFR2 (P21802 22-821): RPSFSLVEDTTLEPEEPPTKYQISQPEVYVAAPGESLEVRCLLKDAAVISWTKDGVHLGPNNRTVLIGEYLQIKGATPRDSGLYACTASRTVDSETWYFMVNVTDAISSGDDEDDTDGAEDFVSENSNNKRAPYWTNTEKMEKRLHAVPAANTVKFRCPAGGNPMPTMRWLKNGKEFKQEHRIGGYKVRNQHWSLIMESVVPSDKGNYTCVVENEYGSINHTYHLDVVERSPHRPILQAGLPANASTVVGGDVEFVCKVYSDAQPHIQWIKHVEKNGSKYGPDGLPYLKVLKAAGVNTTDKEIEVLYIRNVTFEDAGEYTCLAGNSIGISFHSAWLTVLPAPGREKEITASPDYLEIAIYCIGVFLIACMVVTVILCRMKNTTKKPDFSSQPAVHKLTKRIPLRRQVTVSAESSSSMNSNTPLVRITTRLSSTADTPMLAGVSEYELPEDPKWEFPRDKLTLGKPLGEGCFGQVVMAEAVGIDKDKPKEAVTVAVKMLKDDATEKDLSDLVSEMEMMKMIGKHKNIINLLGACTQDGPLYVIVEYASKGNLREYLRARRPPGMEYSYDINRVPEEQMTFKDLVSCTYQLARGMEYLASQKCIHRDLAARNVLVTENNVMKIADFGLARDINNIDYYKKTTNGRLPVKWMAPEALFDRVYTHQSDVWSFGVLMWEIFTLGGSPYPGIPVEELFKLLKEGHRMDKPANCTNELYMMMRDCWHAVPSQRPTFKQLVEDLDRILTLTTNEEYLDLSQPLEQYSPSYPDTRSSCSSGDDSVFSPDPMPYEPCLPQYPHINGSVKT

FGFR4 = FGFR4 (Homo sapiens (Human), UniProt P22455); experiment: Kinase inhibition, Mobility-Shift Assay; format: biochemical; conditions: class; read-out: FGFR4 range of activity effects (IC50)
Sequence of FGFR4 (P22455 22-802): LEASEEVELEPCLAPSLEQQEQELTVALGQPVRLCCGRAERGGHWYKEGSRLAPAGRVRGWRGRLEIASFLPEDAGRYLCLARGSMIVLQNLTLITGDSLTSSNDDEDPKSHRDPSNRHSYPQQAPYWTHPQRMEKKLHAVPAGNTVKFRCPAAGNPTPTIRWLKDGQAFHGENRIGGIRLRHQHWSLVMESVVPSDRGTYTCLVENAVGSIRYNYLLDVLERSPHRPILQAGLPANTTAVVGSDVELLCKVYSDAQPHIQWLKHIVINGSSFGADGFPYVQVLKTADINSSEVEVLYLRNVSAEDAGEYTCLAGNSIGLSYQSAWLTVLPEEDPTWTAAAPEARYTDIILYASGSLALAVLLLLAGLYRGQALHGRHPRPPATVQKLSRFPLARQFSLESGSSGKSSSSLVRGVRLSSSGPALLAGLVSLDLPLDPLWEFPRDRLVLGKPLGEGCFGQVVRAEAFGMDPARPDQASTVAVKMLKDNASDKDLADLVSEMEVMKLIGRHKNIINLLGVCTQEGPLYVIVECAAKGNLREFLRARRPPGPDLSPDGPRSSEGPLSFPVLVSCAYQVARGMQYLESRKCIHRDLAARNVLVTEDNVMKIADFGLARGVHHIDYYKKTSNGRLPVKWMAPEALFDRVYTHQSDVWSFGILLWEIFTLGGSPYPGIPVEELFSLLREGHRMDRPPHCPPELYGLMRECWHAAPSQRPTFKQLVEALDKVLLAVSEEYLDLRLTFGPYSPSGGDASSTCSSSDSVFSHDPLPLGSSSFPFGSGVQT

[5] = system: hepatocellular carcinoma cell line (Hep3B 2.1-7); experiment: Tumor cell proliferation inhibition (CTG, 72 h); format: cell-based; conditions: Homo sapiens; Hep3B 2.1-7 cells, class; read-out: Hep3B 2.1-7 range of activity (IC50)

| SMILES | IC50 [1] [nM] | IC50 [2] [nM] | IC50 (EGFR) [nM] | IC50 (VEGFR-2 (KDR)) [nM] | IC50 [3] [nM] | IC50 (C-MET) [nM] | IC50 [4] [nM] | IC50 (FGFR2) [nM] | IC50 (FGFR4) [nM] | IC50 [5] [nM] |
| --- | --- | --- | --- | --- | --- | --- | --- | --- | --- | --- |
| COc1cc2nccc(Oc3c(F)cc(NC(=O)NC(C)C(F)(F)F)c(Cl)c3F)c2cc1C(N)=O (centres unmarked) [III-38] | > 1000 | > 10000 | > 100 | > 10 | > 10000 | > 100 | > 10000 | > 100 | > 100 | > 5000 |
| COc1cc2nccc(Oc3c(F)cc(NC(=O)NC4(C(F)(F)F)CC4)c(Cl)c3F)c2cc1C(N)=O [III-39] | > 1000 | > 10000 | > 100 | > 10 | > 10000 | > 100 | > 10000 | > 100 | > 100 | > 5000 |
| COc1cc2nccc(Oc3c(F)cc(NC(=O)NC4CC4)c(OC)c3F)c2cc1C(N)=O [III-40] | > 1000 | > 10000 | > 100 | > 10 | > 10000 | > 100 | > 10000 | > 100 | > 100 | > 5000 |
| COc1cc2nccc(Oc3c(F)cc(NC(=O)NC4CC4)c(Cl)c3OC)c2cc1C(N)=O [III-41] | > 1000 | > 10000 | > 100 | > 10 | > 10000 | > 100 | > 10000 | > 100 | > 100 | > 5000 |
| COc1cc2nccc(Oc3c(F)cc(NC(=O)NC4CC4)c(Cl)c3OC(C)C)c2cc1C(N)=O [III-42] | > 1000 | > 10000 | > 100 | > 10 | > 10000 | > 100 | > 10000 | > 100 | > 100 | > 5000 |
| [2H]C([2H])([2H])Oc1c(Cl)c(NC(=O)NC2CC2)cc(F)c1Oc1ccnc2cc(OC)c(C(N)=O)cc12 [III-43] | > 1000 | > 10000 | > 100 | > 10 | > 10000 | > 100 | > 10000 | > 100 | > 100 | > 5000 |
| COc1cc2nccc(Oc3c(F)cc(NC(=O)NC4CC4)c(Cl)c3OCC(F)F)c2cc1C(N)=O [III-44] | > 1000 | > 10000 | > 100 | > 10 | > 10000 | > 100 | > 10000 | > 100 | > 100 | > 5000 |
| COc1cc2nccc(Oc3c(F)cc(NC(=O)NC4CC4)c(Cl)c3OC3CC3)c2cc1C(N)=O [III-45] | > 1000 | > 10000 | > 100 | > 10 | > 10000 | > 100 | > 10000 | > 100 | > 100 | > 5000 |
| COc1cc2nccc(Oc3c(F)cc(NC(=O)NC4CC4)c(N(C)C)c3F)c2cc1C(N)=O [III-46] | > 1000 | > 10000 | > 100 | > 10 | > 10000 | > 100 | > 10000 | > 100 | > 100 | > 5000 |
| COc1cc2nccc(Oc3c(F)cc(NC(=O)NC4CC4)c(Cl)c3OCC(F)(F)F)c2cc1C(N)=O [III-47] | > 1000 | > 10000 | > 100 | > 10 | > 10000 | > 100 | > 10000 | > 100 | > 100 | > 5000 |
| COc1cc2nccc(Oc3c(F)cc(NC(=O)NC4CC4)c(Cl)c3N(C)C3CC3)c2cc1C(N)=O [III-48] | > 1000 | > 10000 | > 100 | > 10 | > 10000 | > 100 | > 10000 | > 100 | > 100 | > 5000 |
